Series [1] can be described thus: Non-human primate (NHP) CSF pharmacokinetic properties (Example 6). Format: in vivo, Cynomolgus monkeys. To be noted: male, Cynomolgus monkey. As to the method:
Protocol PK in NHP was determined following intravenous and oral dosing. For the intravenous (IV) experiments, a group of 4 male Cynomolgus monkeys were used. The IV group was dosed with 0.3 mg/kg of a compound formulated as a solution in 10% PEG-400, 25% of a 20% Solutol HS 15 in Water, and 65% DPBS. IV doses were administered by injection and delivered via catheter into the cephalic vein. For the oral (PO) experiments, a group of 4 male Cynomolgus monkeys were used. The PO group was dosed with 1 mg/kg of a compound formulated as a suspension in 1% HPMC E5, 0.2% Tween 80, 0.5% MC in water. PO doses were administered by oral gavage and delivered via gelatin capsule.
Plasma and CSF samples were collected as follows: samples of CSF and blood were collected at 1, 4 and 24 hours post IV dosing and 2, 8 and 24 hours post PO dosing. CSF samples (0.05 mL) were collected either the cisterna magna (primary site) or the lumbosacral region (L4/5) via direct needle puncture at the appropriate time points. Blood samples (0.25 mL) were collected from a peripheral vein. These samples were kept on ice until processed for plasma. Blood samples were centrifuged at 3200 rpm for 5 minutes at approximately 5° C. within 1 hour of collection. Plasma was directly transferred to a 96-well plate tube (0.125 mL). Plug caps were placed on the tubes and the tubes frozen at approximately −70° C. and stored until analysis. Plasma was collected and analyzed for the presence of a compound.
Quantitation of Compounds. The compound of the invention and the internal standard were extracted from plasma and CSF by precipitation. Samples were analyzed using liquid chromatography (LC) with tandem mass spectrometric detection (MS/MS) using electrospray ionization. The standard curve range was from 1 to 1000 ng/mL. Results of the compounds described herein in this assay are illustrated in Tables 6a and 6b below (0.3 mg/kg IV dose, 1 mg/kg PO dose).
Kp,uu is defined as the concentration ratio of unbound drug in CSF to unbound drug in plasma. Unbound drug in plasma (or free plasma concentration) is calculated by multiplying the total plasma concentration by the unbound fraction as determined by plasma protein binding. The CSF concentration is then divided by the free plasma concentration to determine the Kp,uu. (See e.g., Di et al., J. Med Chem., 56, 2-12 (2013))

The subject of series [2] is rats. Nature of the series: Inflammatory pain: kaolin, gait score (Example 13). Format: in vivo, rat. To be noted: Compound I-1 p.o. 10 mg/kg, 120 minutes after treatment. As to the method: Kaolin. Induction: In rats, unilateral arthritis was induced by an intra-articular injection of a 10% kaolin suspension into the knee joint of the right hind paw under gas anesthesia (3.5% isoflurane/3 L/min). Gait score: The gait score will be evaluated 3 h 30 min after kaolin administration by:
2: intermittent raising of the paw

For series [3], the system named is rats. In words: Acute and tonic pain: healthy rats, paw pressure test (Example 13). To be noted: Compound I-1 p.o. 10 mg/kg, 120 minutes after treatment.
Description: Paw Pressure Test. Static mechanical hyperalgesia is measured. This test requires the application of an increasing pressure on the hind paws between a flat surface and a blunt pointer. To evaluate the analgesic action of a compound, one hind paw of the animal was inflamed by an injection or injured by ligation, while the other hind paw was not injured or inflamed. The apparatus exerted a steadily increasing force on the hind paws. The reaction threshold was determined as the pressure (g) required to elicit paw withdrawal and/or vocalization. The animals were gently handled by the experimenter and static mechanical hyperalgesia were assessed two times for both hind paws.
Testing: 120 minutes after treatment. N=4/model/test. Results are expressed for each group as a percentage of activity calculated from the mean value of the vehicle-treated animals and compared to naïve animals, control paw, or cut-off value, depending on the test.
Series [4] deals with brain activity in awake rats. In words: Brain activation in rats measured by fMRI-BOLD (Example 11). The class given is in vivo, rat. To be noted: single IV administration, vs peripherally restricted sGC stimulator. An excerpt: Objective. Functional magnetic resonance imaging or functional MRI (fMRI) is a functional neuroimaging procedure using MRI technology that measures brain activity by detecting changes associated with blood flow. This technique relies on the fact that cerebral blood flow and neuronal activation are coupled. When an area of the brain is in use, blood flow to that region also increases. Awake rats were studied by fMRI to assess changes (“fingerprint”) in brain activity following a single intravenous administration of a compound of the invention
Experimental Design. 24 male Sprague-Dawley rats weighing from 275-350 g were used. Following acclimation, the animals were placed in the restrainer and positioned in the magnet. Catheters were placed in each animal to allow for remote dosing when the animals were in the magnet. Scans were acquired continuously for 5 minutes prior to administration of either a vehicle or a compound of the invention to establish a baseline for the brain activity. Following the 5-minute baseline period, either the vehicle or the compound of the invention was administered to the rat and scans were acquired continuously for 30-45 minutes.

Series [5] has as its system Sprague-Dawley rats, streptozotocin model. Nature of the series: Rat model of diabetic neuropathy (STZ model), paw pressure test (Example 14). Format: in vivo. Conditions: Compound I-1 10 mg/kg p.o., mean±s.e.m.

Molecules are shown by their SMILES. Read-outs that look alike come from different tables or passages of the source.

Take `Fc1ccccc1Cc1nc(-c2nc(C(F)(F)F)n[nH]2)cn2ccnc12` [Compound I-1, 8-(2-fluorobenzyl)-6-(3-(trifluoromethyl)-1H-1,2,4-triazol-5-yl)imidazo[1,2-a]pyrazine]: the Kp uu at 1 h in series [1] (CSF / unbound plasma, 0.3 mg/kg IV, @ 1 h) was 1.8. In series [1] (CSF / unbound plasma, 0.3 mg/kg IV, @ 4 h), this compound registered a Kp uu at 4 h of 3. In addition, the Kp uu at 24 h in series [1] (CSF / unbound plasma, 0.3 mg/kg IV) is 2.8; in series [1] (CSF / unbound plasma, 1 mg/kg PO), 2.1. The same compound registered a Kp uu at 2 h in series [1] (CSF / unbound plasma, 1 mg/kg PO, @ 2 h) of 1.8. The Kp uu at 8 h in series [1] (CSF / unbound plasma, 1 mg/kg PO, @ 8 h) was 2.5. Besides, the concentration at 1 h in series [1] (CSF, 0.3 mg/kg IV, @ 1 h, read-out: CSF Conc.) came to 0.027 µM. Further, the concentration at 4 h in series [1] (CSF, 0.3 mg/kg IV, @ 4 h, read-out: CSF Conc.) amounted to 0.02 µM. Moreover, the concentration at 24 h was found to be 0.006 µM in series [1] (CSF, 0.3 mg/kg IV, read-out: CSF Conc.) and 0.011 µM in series [1] (CSF, 1 mg/kg PO, read-out: CSF Conc.). The concentration at 2 h in series [1] (CSF, 1 mg/kg PO, @ 2 h, read-out: CSF Conc.) was 0.042 µM. The concentration at 8 h in series [1] (CSF, 1 mg/kg PO, @ 8 h, read-out: CSF Conc.) was found to be 0.031 µM. Also, the “% of activity vs. vehicle” value is recorded as 40% in the series with rats [2] and −6% in the series with rats [3]. Also, the “brain activation (fMRI-BOLD)” value in series [4] was “a greater region of the brain is activated”. Also, the “nociceptive threshold (paw pressure test)” value in series [5] (D18, 60 min post administration, gabapentin 100 mg/kg p.o., morphine 4 mg/kg s.c.) turned out to be 328 ± 32.6 g; in series [5] (D18, 120 min post administration, gabapentin 100 mg/kg p.o., morphine 4 mg/kg s.c.), 387 ± 30.2 g; in series [5] (D18, 180 min post administration), 319 ± 23.1 g; in series [5] (D21, 120 min after dosing, gabapentin 100 mg/kg p.o., morphine 4 mg/kg s.c.) it was 346 ± 20.5 g; in series [5] (D21, baseline prior to administration (Cmin, daily dosing from D18)), 259 ± 25.6 g.
